Results: patent US20240108610A1, “RECTAL ADMINISTRATION OF ROFLUMILAST FOR THE TREATMENT OF CROHN'S DISEASE” (King Abdulaziz University, priority 2022, published 2024)

How the values were obtained:
Format in all cases: in vivo, rat
[1] = tested on: trinitrobenzenesulfonic acid (TNBS)-induced colitis; assay: Colonic length and macroscopic appearance in TNBS-induced chronic colitis
Method: (§1) Chronic colitis was induced by weekly rectal injections of increasing doses of TNBS over 6 weeks (15, 30, 45, 60, 60, and 60 mg from day 0 to day 35), as previously described (4,12). Briefly, after food deprivation for 24 h, rats were anesthetized with an intraperitoneal injection of 1% isoflurane. TNBS was dissolved in ethanol (50%) and instilled into the colon using a cannula (0.25 mL), and then the rats were held upside down for 3 min to prevent escape of the intracolonic TNBS. Roflumilast was dissolved in dimethyl sulfoxide and diluted in 0.5% carboxymethyl cellulose sodium to a final concentration of 5.0 mg·kg^−1·day^−1 as previously described (13). Five groups of rats (n=8) were established: normal control (NC group), TNBS-treated (TNBS group, positive control), and three TNBS-treated groups that received oral sulfasalazine (SS group, 500 mg/kg) (14), oral roflumilast (by gastric gavage, OR group, 5 mg/kg), or rectal roflumilast (RR group, 5 mg/kg). Treatments were administered once daily in a volume of 200 μL for 15 days starting 48 h after the induction of colitis (from day 37) (15), and the control rats received equal amounts of vehicle. At the end of the treatment period, the rats were evaluated with the colitis activity score. To detect the effects of the treatments on systemic inflammatory processes, blood was collected for measurements of the proinflammatory mediators TNF-α, IL-2, and IL-6. At the end of the 15-day treatment period, the rats were sacrificed by cervical dislocation, and the colon was isolated, cleaned of feces, and measured for weight and length. Colonic myeloperoxidase (MPO) activity and glutathione (GSH) and malonaldehyde (MDA) levels were measured. The colon was examined macroscopically for gross changes and microscopically in sections stained with hematoxylin and eosin (H&E), Masson trichrome, and Periodic Acid Schiff (PAS) stains as well as KI-67 and TNF-α immunostaining. After the rats were sacrificed, their colon was excised, and its length was measured. The appearance of the colon regarding edema, ulceration, and necrosis was evaluated (17).

TNF-α = assay: Serum TNF-α ELISA in TNBS-induced colitis; details: means±SE, n = 8
Method: as §1, with “Blood” for “After the rats were sacrificed, their colon”, “collected through cardiac puncture. The serum was obtained” for “excised,”, “stored at −80° C. until analysis. […]” for “its length was measured. The appearance of the colon regarding edema, ulceration, and necrosis was evaluated (17).”

IL-6 = assay: Serum IL-6 ELISA in TNBS-induced colitis; details: means±SE, n = 8
Method: as §1, with “Blood” for “After the rats were sacrificed, their colon”, “collected through cardiac puncture. The serum was obtained” for “excised,”, “stored at −80° C. until analysis. […]” for “its length was measured. The appearance of the colon regarding edema, ulceration, and necrosis was evaluated (17).”

[2] = tested on: trinitrobenzenesulfonic acid (TNBS)-induced colitis; assay: Histopathological examination of colonic sections (H&E, Masson trichrome, PAS)
Method: as §1, with “The colonic segments” for “After the rats”, “fixed in 10% buffered formalin” for “sacrificed, their colon was excised,”, “embedded in paraffin. Afterwards, 3-5-μm-thick sections were made and stained with H&E, Masson's trichrome for collagen, and PAS for […] and mucopolysaccharides.” for “its length was measured.”, “severity” for “appearance”, “lesions” for “colon regarding edema, ulceration, and necrosis”, “by a blinded histopathologist as normal, mild, moderate, or marked injury (21).” for “(17).”

[3] = oral, once daily for 15 days, sulfasalazine 500 mg/kg, roflumilast 5 mg/kg
[4] = rectal, 5 mg/kg once daily for 15 days
[5] = oral, once daily for 15 days, SS 500 mg/kg, OR 5 mg/kg

| SMILES | Colonic length [1, 3] | Colonic macroscopic appearance [1, 3] | Colonic macroscopic appearance [1, 4] | serum level of TNF-α (TNF-α; [5]) | serum level of TNF-α (TNF-α; [4]) | serum level of IL-6 (IL-6; [5]) | serum level of IL-6 (IL-6; [4]) | PAS-stained goblet cells [2, 3] | collagen deposition, Masson trichrome [2, 3] | colonic sections stained with H&E, improvement [2, 3] | PAS-stained goblet cells [2, 4] | collagen deposition, Masson trichrome [2, 4] | colonic sections stained with H&E, improvement [2, 4] |
| --- | --- | --- | --- | --- | --- | --- | --- | --- | --- | --- | --- | --- | --- |
| O=C(Nc1c(Cl)cncc1Cl)c1ccc(OC(F)F)c(OCC2CC2)c1 [roflumilast] | more improvement than rectal roflumilast | moderate to marked improvement | mild improvement | 38.87 ± 2.33^a, b, f pg/mL | 79.37 ± 1.88^a, c, e pg/mL | 21.85 ± 1.00^j, k, l pg/mL | 28.93 ± 0.50^j, k pg/mL | moderate population | moderate decrease | moderate improvement | small population | mild decrease | mild improvement |
| O=C(O)c1cc(/N=N/c2ccc(S(=O)(=O)Nc3ccccn3)cc2)ccc1O [sulfasalazine] | greatest effect | marked improvement |  | 28.93 ± 0.5^b, d pg/mL |  | 16.14 ± 1.13^k, m pg/mL |  | nearly normal population | marked decrease | marked improvement |  |  |  |
